Measured values as given in patent publication US8648116B2, “Derivatives of N-(arylamino) sulfonamides including polymorphs as inhibitors of MEK as well as compositions, methods of use and methods for preparing the same” (Ardea Biosciences, Inc., priority 2005, dated 2014).
Read-outs that look alike come from different tables or passages of the source. Marks after values point to notes of the source that are not given here. Values belong to the molecule of their own block, whether it stands above or below them.

Experiments:
[1] = Dynamic vapor sorption/desorption (DVS); type: physicochemical; conditions: Form A; 5% to 95% relative humidity
Method: Moisture sorption/desorption data were collected on a VTI SGA-100 Vapor Sorption Analyzer. Sorption and desorption data were collected over a range of 5% to 95% relative humidity (RH) at 10% RH intervals under a nitrogen purge. Samples were not dried prior to analysis. Equilibrium criteria used for analysis were less than 0.0100% weight change in 5 minutes, with a maximum equilibration time of 3 hours if the weight criterion was not met. Data were not corrected for the initial moisture content of the samples. Sodium chloride and polyvinypyrrolidine were used as calibration standards.

[2] = test system: COLO 205 human colon carcinoma xenografts; experiment: Activity against subcutaneous COLO 205 xenografts (Example 118)
[3] = test system: Colo205 tumor cells; experiment: ED50 in Colo205 xenografts (Example 94D); type: in vivo, nu/nu mice; conditions: Paclitaxel 30 mg/kg IV QODx5, Colo205 xenografts
Source text: Male nu/nu mice were implanted with Colo205 tumor cells. After 10 days animals were randomized by tumor size (range 126-256 mm^3) and treated with paclitaxel (IV, QODx5), vehicle or Compound A (PO, QDx14).

[4] = test system: human A375 melanoma xenografts
[5] = test system: A375 cells; experiment: Evaluation of cell cycle arrest (propidium iodide, flow cytometry); type: cell-based, human; conditions: 24 hr
Method: A375 cells were plated in 96-well microplates at 10,000 cells/200 μl/well. […] After another 24 hr, cells were trypsinized, fixed in 200 μl Prefer (Anatech, Battle Creek, Mich.), and stored at 4° C. overnight. Cells were then rinsed in PBS, permeabilized and stained in 0.1% Triton X-100, 200 μg/ml DNase-free RNase, and […] propidium iodide (Molecular Probes, Sunnyvale, Calif.), and analyzed on the Guava PCA-96 (Guava Technologies, Foster City, Calif.). Data were analyzed using ModFit LT (version 3.0, Verity, Topsham, Me.).

[6] = test system: MDA pERK; experiment: MDA pERK ELISA; type: cell-based
[7] = test system: Complete Freund's Adjuvant induced arthritis; experiment: Rat adjuvant arthritis inflammation assay; type: in vivo, rats; conditions: 10 mg/kg subcutaneous on days 1 and 4
Method: In the rat adjuvant induced arthritis model, Complete Freund's Adjuvant (CFA) is injected into the right hind paw of rats to induce pathologies similar to rheumatoid arthritis in humans. Compound A was administered orally for 5 consecutive days at 2, 6, and 20 mg/kg. Dexamethasone at 5 m g/kg was also administered orally for 5 days. Enbrel at 10 mg/kg was administered by subcutaneous injection on days 1 and 4. CFA was injected into the right hind paw one hour after the first dose on day 1. […] Polyarthritis was scored as the presence of swelling in front paws, tail, nose or ear.

[8] = Group 2, paclitaxel 30 mg/kg iv qod × 14 per the 39th table (qod×5), n=9
[9] = Group 2: Paclitaxel 30 mg/kg iv qod×5
[10] = Group 2: Paclitaxel 30 mg/kg iv qod×5, n=9

Molecule: COc1cc(F)c(F)c(Nc2ccc(I)cc2F)c1NS(=O)(=O)C1(C[C@H](O)CO)CC1 [listing 1 of 2 here]
weight change in DVS [1]: negligible weight change

Molecule: CC(=O)O[C@H]1C(=O)[C@@]2(C)[C@H]([C@H](OC(=O)c3ccccc3)[C@]3(O)C[C@H](OC(=O)[C@H](O)[C@@H](NC(=O)c4ccccc4)c4ccccc4)C(C)=C1C3(C)C)[C@]1(OC(C)=O)CO[C@@H]1C[C@@H]2O [paclitaxel, reference compound]
PR responses ([2]; Group 2, 30 mg/kg i.v. qod×5): Five
MTV ([2]; Group 2, 30 mg/kg i.v. qod×5, Day 74): 143 mm^3
% TGD [2, 8]: 46%
MTV (n) Day 74 [2, 8]: 0 (3)
Median TTE [2, 8]: 60.0 days
No of CR [2, 8]: 0
No of NTR (non-treatment-related deaths) [2, 8]: 2
No of PR [2, 8]: 1
No of TFS [2, 8]: 0
No of TR (treatment-related deaths) [2, 8]: 2
SS (statistical significance, logrank vs Group 1) [2, 8]: ns
T − C [2, 8]: 19.0 days
Day 15 Tumor Volume [3]: 113 ± 9.6 mm^3
% TGI ([3]; Day 15): 104* %
Median TTE ([4]; Group 2, 30 mg/kg iv qod×5): 28.8 days
TGD ([4]; Group 2, 30 mg/kg iv qod×5): 26%
tumor regressions ([4]; Group 2, 30 mg/kg iv qod×5): No tumor regressions
% TGD [4, 9]: 26%
Median TTE [4, 9]: 28.8 days
T − C [4, 9]: 6.0 days
Regressions CR [4, 10]: 0
Regressions PR [4, 10]: 0
Regressions TFS [4, 10]: 0

Molecule: COc1cc(F)c(F)c(Nc2ccc(I)cc2F)c1NS(=O)(=O)C1(C[C@H](O)CO)CC1 [listing 2 of 2 here]
Phase % G1 ([5]; 37 nM): 74.3%
Phase % G2 ([5]; 37 nM): 7.0%
Phase % S ([5]; 37 nM): 18.7%
Phase % G1 ([5]; 111 nM): 84.7%
Phase % G2 ([5]; 111 nM): 3.5%
Phase % S ([5]; 111 nM): 11.8%

Molecule: CS(=O)(=O)Nc1ccc(-c2ccc(Nc3c(NS(=O)(=O)C4CC4)ccc(F)c3F)c(F)c2)cc1 [Example 0499271]
EC50 [6]: > 200 nM

Molecule: enbrel
animals without swelling in the tail (polyarthritis scoring) [7]: 3 of 6
protection from front paw swelling (polyarthritis scoring) [7]: no animals were protected

Next, values leading:

EC50 [6]: 15 to 100 nM
Molecule: O=S(=O)(Nc1ccc(F)c(F)c1Nc1ccc(I)cc1F)c1ccsc1 [Example 0620927]

EC50 [6]: 100 to 200 nM
Molecule: O=S(=O)(Nc1ccc(F)c(F)c1Nc1ccc(I)cc1F)c1ccc(-c2nsc(Cl)n2)s1 [Example 0530701]

EC50 [6]: > 200 nM
Molecule: O=S(=O)(Nc1ccc(F)c(F)c1Nc1ccc(-c2cccnc2)cc1F)C1CC1 [Example 0497689]

EC50 [6]: 100 to 200 nM
Molecule: Cn1cc(S(=O)(=O)Nc2ccc(F)c(F)c2Nc2ccc(I)cc2F)c(C(F)(F)F)n1 [Example 0621026]

EC50 [6]: > 200 nM
Molecule: O=S(=O)(Nc1ccc(F)c(F)c1Nc1ccc(-c2ccccc2)cc1F)C1CC1 [Example 0497692]

EC50 [6]: 100 to 200 nM
Molecule: O=S(=O)(Nc1ccc(F)c(F)c1Nc1ccc(-c2cc[nH]n2)cc1F)C1CC1 [Example 0497654]
